Source: article PMC10885153, “Membrane Permeability in a Large Macrocyclic Peptide Driven by a Saddle-Shaped Conformation” (Journal of the American Chemical Society, 2024)
Each block holds one compound with its values, some of them ahead of it. Positions of bridges follow the written chain, without caps; N, C: chain ends. Non-standard residues stand in square brackets, D forms with d. Residues, ends and D or L forms follow the SMILES beside them. Cha = N[C@@H](CC1CCCCC1)C(=O)O; NMeNva = CCC[C@H](NC)C(=O)O; NMeAbu = CC[C@H](NC)C(=O)O; NMeC = CN[C@@H](CS)C(=O)O; NMeA = CN[C@@H](C)C(=O)O; dAbu = CC[C@@H](N)C(=O)O; dNMeA = CN[C@H](C)C(=O)O; Nva = CCC[C@H](N)C(=O)O; Abu = CC[C@H](N)C(=O)O; Nleu = CC(C)CNCC(=O)O; NPrGly = CCCNCC(=O)O; NEtG = CCNCC(=O)O

How the values were obtained:
[1] = in vitro; conditions: dog, pH 7.4
[2] = in vitro; conditions: PAMPA
Experimental: assay was carried out with a 96-well donor plate with 0.45 μ hydrophobic Immobilon-P membrane supports
(Millipore MAIPNTR10) and a 96-well Teflon acceptor plate (Millipore MSSACCEPTOR). The PAMPA
protocol then proceeded as follows:
Donor well solutions were prepared to a volume of 1 000 µL with the analytes as a solution in 1X
PBS pH 7.4 and 5% DMSO. To a 3 mL Eppendorf tube was added 950 µL of 1X PBS pH 7.4, 40
Analyte – 10 µM per compound
sonicated (5 min) to ensure full dissolution of the lecithin. The donor membrane plate was turned
upside down and bottom of the membranes exposed. 5 µL of the 1% soy lecithin solution in
dodecane was then placed on the bottom of the membrane, allowing the drop to spread across the
full area of the membrane. Any membranes with visible damage were not used in the assay. The
membranes were allowed to equilibrate for 5 min before loading.
3. Each well within the Teflon block acceptor plate that was to be used in the assay was then loaded
with 300 µL of 1X PBS pH 7.4 and 5% DMSO.
Working without break, 150 µL of each donor well solution was transferred from the to the 96-well
donor plate. Each mixture of interest was r un in quadruplicate, using a new well for each replicate.
As soon as the 96-well donor plate was finished being loaded, it was gently placed into the 96-well
Teflon acceptor plate, taking care not to trap any air bubbles beneath the membrane.
The donor/acceptor plates were covered gently with the lid to minimize evaporation and transferred
gently as a system to a sealed chamber and left to sit overnight at room temperature. The chamber
was kept from drying by placing a wet paper towel within to prevent evaporation.
After ~19-20 hours the donor plate was removed from the acceptor plate.
50 µL of each well (donor and acceptor) were transferred to a 96 -well plate and diluted with 50 µL
of methanol prior to heat sealing and quantification by UPLC -MS.

[3] = PAMPA, compounds measured in multiplex as mixtures (primary protocol); conditions: for Papp at 10 µM: PAMPA, pH 7.4, PAMPA Papp; for Papp at 10 µM / PAMPA Papp: internal standard, 10 µM; for PAMPA Pe_avg: Stereoscan Library A (Scaffold A), average
[4] = PAMPA, 10 µM, pH 7.4
[5] = in vitro; conditions: PAMPA; remark: listed apart in the source

- Papp at 3 h, 10 µM ([1]; MDCK): 1.3 ×10⁻⁶ cm/s
- Papp A→B at 3 h, 10 µM [1]: 1.27 ×10⁻⁶ cm/s
- Papp at 10 µM ([2]; pH 7.4, PAMPA Papp): 10.1 ×10⁻⁶ cm/s
- Papp at 10 µM ([2]; pH 7.4, Papp): ~10 ×10⁻⁶ cm/s
Compound: CCOC(=O)[C@@H]1CSCC(=O)N[C@H](CC)C(=O)N(CC(C)C)CC(=O)N[C@@H](CC(C)C)C(=O)N(C)[C@H](C)C(=O)N(C)[C@@H](C)C(=O)N[C@H](CC(C)C)C(=O)N(C)[C@H](C)C(=O)N[C@@H](CC(C)C)C(=O)N1C [B1, O=C([C@@H](NC([C@H](N(C([C@H](NC([C@@H](N(C([C@H](N(C)C([C@@H](NC(CN1CC(C)C)=O)CC(C)C)=O)C)=O)C)C)=O)CC(C)C)=O)C)C)=O)CC(C)C)N([C@@H](CSCC(N[C@H](CC)C1=O)=O)C(OCC)=O)C] ({CH2CO}-[dAbu][Nleu]L[dNMeA][NMeA][dL][dNMeA]L[NMeC]-OEt; thioether N-9)

- Papp at 10 µM ([3]; Lipo expt. group A1): 5.9 ± 0.3 ×10⁻⁶ cm/s
- Papp at 10 µM ([3]; Lipo expt. group A2): 6 ± 0.4 ×10⁻⁶ cm/s
- Papp at 10 µM ([3]; Lipo expt. group B1): 5.8 ± 0.4 ×10⁻⁶ cm/s
- Papp at 10 µM ([3]; Lipo expt. group B2): 6.3 ± 0.2 ×10⁻⁶ cm/s
- Papp at 10 µM ([3]; Lipo expt. group C1): 6.8 ± 0.1 ×10⁻⁶ cm/s
- Papp at 10 µM ([3]; Lipo expt. group C2): 6 ± 0.1 ×10⁻⁶ cm/s
- Papp at 10 µM ([3]; StereoA expt. group A2D): 4.4 ± 0.1 ×10⁻⁶ cm/s
- Papp at 10 µM ([3]; StereoA expt. group A2L): 4.4 ± 0.1 ×10⁻⁶ cm/s
- Papp at 10 µM ([3]; StereoA expt. group ADD): 4.2 ± 0.1 ×10⁻⁶ cm/s
- Papp at 10 µM ([3]; StereoA expt. group ADL): 4.3 ± 0.2 ×10⁻⁶ cm/s
- Papp at 10 µM ([3]; StereoA expt. group ALD): 4.3 ± 0.1 ×10⁻⁶ cm/s
- Papp at 10 µM ([3]; StereoA expt. group ALL): 5.1 ± 0.3 ×10⁻⁶ cm/s
- Papp at 10 µM ([3]; StereoB expt. group B2D): 6.3 ± 1.7 ×10⁻⁶ cm/s
- Papp at 10 µM ([3]; StereoB expt. group B2L): 5.6 ± 0.2 ×10⁻⁶ cm/s
- Papp at 10 µM ([3]; StereoB expt. group BDD): 5.5 ± 0.1 ×10⁻⁶ cm/s
- Papp at 10 µM ([3]; StereoB expt. group BDL): 5.8 ± 0.1 ×10⁻⁶ cm/s
- Papp at 10 µM ([3]; StereoB expt. group BLD): 5.5 ± 0.1 ×10⁻⁶ cm/s
- Papp at 10 µM ([3]; StereoB expt. group BLL): 5.8 ± 0.2 ×10⁻⁶ cm/s
Compound: NC(=O)N1c2ccccc2C=Cc2ccccc21 [Carbamazepine]

Compound: CCOC(=O)[C@@H]1CSCC(=O)N[C@H](CC)C(=O)N(C)[C@@H](C)C(=O)N[C@H](CC(C)C)C(=O)N(C)[C@H](C)C(=O)N(CC)CC(=O)N[C@@H](CC(C)C)C(=O)N(C)[C@@H](C)C(=O)N[C@@H](CC(C)C)C(=O)N1C [JF206_A2D_DDLL_Ethyl] ({CH2CO}-[dAbu][NMeA][dL][dNMeA][NEtG]L[NMeA]L[NMeC]-OEt; thioether N-9)
- PAMPA Pe_avg [3]: 0 ×10⁻⁶ cm/s

Compound: CCOC(=O)[C@@H]1CSCC(=O)N[C@H](CC)C(=O)N(C)[C@@H](C)C(=O)N[C@H](CC(C)C)C(=O)N(C)[C@H](C)C(=O)N(CC(C)C)CC(=O)N[C@@H](CC(C)C)C(=O)N(C)[C@@H](C)C(=O)N[C@@H](CC(C)C)C(=O)N1C [JF206_A2D_DDLL_Isobutyl] ({CH2CO}-[dAbu][NMeA][dL][dNMeA][Nleu]L[NMeA]L[NMeC]-OEt; thioether N-9)
- PAMPA Pe_avg [3]: 0 ×10⁻⁶ cm/s

- %R_avg [4]: 4.8%
- log(Pe)_avg [4]: -6.100
- Papp at 10 µM ([5]; pH 7.4, Pe_avg): 0.794 ×10⁻⁶ cm/s
Compound: CCCN1CC(=O)N[C@@H](CC(C)C)C(=O)N(C)[C@@H](C)C(=O)N[C@@H](CC(C)C)C(=O)N(C)[C@H](C(=O)OCC)CSCC(=O)N[C@@H](CC(C)C)C(=O)N(C)[C@@H](C)C(=O)N[C@@H](CC(C)C)C(=O)N2CCC[C@@H]2C1=O [LA08, O=C(N(C)[C@H](C(OCC)=O)CSCC(N[C@H](C(N(C)[C@@H](C)C(N[C@@H](CC(C)C)C(N1[C@H](CCC1)C(N(CCC)CC(N[C@H]2CC(C)C)=O)=O)=O)=O)=O)CC(C)C)=O)[C@H](CC(C)C)NC([C@H](C)N(C)C2=O)=O] ({CH2CO}-L[NMeA]L[dP][NPrGly]L[NMeA]L[NMeC]-OEt; thioether N-9)

- %R_avg [4]: 50.3%
- Papp at 10 µM ([5]; pH 7.4, Pe_avg): 2.57 ×10⁻⁶ cm/s
Compound: CCC[C@@H]1NC(=O)CN(CC)C(=O)[C@H](CC(C)C)NC(=O)CSC[C@@H](C(=O)OCC)N(C)C(=O)[C@H](CC(C)C)NC(=O)[C@H](C)N(C)C(=O)[C@H](CC(C)C)NC(=O)[C@H](C)N(C)C(=O)[C@H]2CCCN2C1=O [LB05, O=C(N(C)[C@H](C(OCC)=O)CSCC(N[C@H](C1=O)CC(C)C)=O)[C@H](CC(C)C)NC([C@H](C)N(C)C([C@H](CC(C)C)NC([C@H](C)N(C)C([C@@H]2N(C([C@H](CCC)NC(CN1CC)=O)=O)CCC2)=O)=O)=O)=O] ({CH2CO}-L[NEtG][Nva][dP][NMeA]L[NMeA]L[NMeC]-OEt; thioether N-9)

- %R_avg [4]: 13.3%
- Papp at 10 µM ([5]; pH 7.4, Pe_avg): 2.29 ×10⁻⁶ cm/s
Compound: CCCN1CC(=O)N[C@@H](CC(C)C)C(=O)N2CCC[C@@H]2C(=O)N(C)[C@@H](C)C(=O)N[C@@H](CC(C)C)C(=O)N(C)[C@@H](C)C(=O)N[C@@H](CC(C)C)C(=O)N(C)[C@H](C(=O)OCC)CSCC(=O)N[C@@H](CC(C)C)C1=O [LB08, O=C(N(C)[C@H](C(OCC)=O)CSCC(N[C@H](C1=O)CC(C)C)=O)[C@H](CC(C)C)NC([C@H](C)N(C)C([C@H](CC(C)C)NC([C@H](C)N(C)C([C@@H]2N(C([C@H](CC(C)C)NC(CN1CCC)=O)=O)CCC2)=O)=O)=O)=O] ({CH2CO}-L[NPrGly]L[dP][NMeA]L[NMeA]L[NMeC]-OEt; thioether N-9)

- %R_avg [4]: 6.2%
- Papp at 10 µM ([5]; pH 7.4, Pe_avg): 0.619 ×10⁻⁶ cm/s
- Papp at 10 µM ([5]; pH 7.4, log(Pe)_avg): 0.551 ×10⁻⁶ cm/s
Compound: CCC[C@@H]1NC(=O)CN(CCC)C(=O)[C@H](CC(C)C)NC(=O)CSC[C@@H](C(=O)OCC)N(C)C(=O)[C@H](CC(C)C)NC(=O)[C@H](C)N(C)C(=O)[C@H](CC2CCCCC2)NC(=O)[C@H](C)N(C)C(=O)[C@H]2CCCN2C1=O [LB11, O=C(N(C)[C@H](C(OCC)=O)CSCC(N[C@H](C1=O)CC(C)C)=O)[C@H](CC(C)C)NC([C@H](C)N(C)C([C@H](CC2CCCCC2)NC([C@H](C)N(C)C([C@@H]3N(C([C@H](CCC)NC(CN1CCC)=O)=O)CCC3)=O)=O)=O)=O] ({CH2CO}-L[NPrGly][Nva][dP][NMeA][Cha][NMeA]L[NMeC]-OEt; thioether N-9)

- %R_avg [4]: 6.0%
- Papp at 10 µM ([5]; pH 7.4, Pe_avg): 0.072 ×10⁻⁶ cm/s
- Papp at 10 µM ([5]; pH 7.4, log(Pe)_avg): 0.0593 ×10⁻⁶ cm/s
Compound: CCCN1CC(=O)N[C@@H](CC(C)C)C(=O)N2CCC[C@@H]2C(=O)N(C)[C@@H](C)C(=O)N[C@@H](CC2CCCCC2)C(=O)N(C)[C@@H](C)C(=O)N[C@@H](CC(C)C)C(=O)N(C)[C@H](C(=O)OCC)CSCC(=O)N[C@@H](CC(C)C)C1=O [LB12, O=C(N(C)[C@H](C(OCC)=O)CSCC(N[C@H](C1=O)CC(C)C)=O)[C@H](CC(C)C)NC([C@H](C)N(C)C([C@H](CC2CCCCC2)NC([C@H](C)N(C)C([C@@H]3N(C([C@H](CC(C)C)NC(CN1CCC)=O)=O)CCC3)=O)=O)=O)=O] ({CH2CO}-L[NPrGly]L[dP][NMeA][Cha][NMeA]L[NMeC]-OEt; thioether N-9)

- %R_avg [4]: 19.3%
- Papp A→B at 3 h, 10 µM ([1]; MDCK): 7.4 ×10⁻⁶ cm/s
- Papp at 3 h, 10 µM ([1]; MDCK): 7.4 ×10⁻⁶ cm/s
- Papp at 10 µM ([5]; pH 7.4, Permeability (Papp) PAMPA (mixture)): 5 ×10⁻⁶ cm/s
Compound: CCOC(=O)[C@@H]1CSCC(=O)N[C@@H](CC(C)C)C(=O)N(C)[C@@H](C)C(=O)N[C@@H](CC(C)C)C(=O)N2CCC[C@@H]2C(=O)N(C)[C@@H](CC)C(=O)N[C@@H](CC)C(=O)N(C)[C@@H](C)C(=O)N[C@@H](CC(C)C)C(=O)N1C [LC02, O=C(N(C)[C@H](C(OCC)=O)CSCC(N[C@H](C(N(C)[C@@H](C)C(N[C@@H](CC(C)C)C(N1[C@H](CCC1)C(N(C)[C@@H](CC)C(N[C@H]2CC)=O)=O)=O)=O)=O)CC(C)C)=O)[C@H](CC(C)C)NC([C@H](C)N(C)C2=O)=O] ({CH2CO}-L[NMeA]L[dP][NMeAbu][Abu][NMeA]L[NMeC]-OEt; thioether N-9)

- %R_avg [4]: 7.4%
Compound: CCC[C@@H]1NC(=O)[C@H](C)N(C)C(=O)[C@H](CC(C)C)NC(=O)CSC[C@@H](C(=O)OCC)N(C)C(=O)[C@H](CC(C)C)NC(=O)[C@H](C)N(C)C(=O)[C@H](CC2CCCCC2)NC(=O)[C@H](CCC)N(C)C(=O)[C@H]2CCCN2C1=O [LC11, O=C(N(C)[C@H](C(OCC)=O)CSCC(N[C@H](C(N(C)[C@@H](C)C(N[C@@H](CCC)C(N1[C@H](CCC1)C(N(C)[C@@H](CCC)C(N[C@H]2CC3CCCCC3)=O)=O)=O)=O)=O)CC(C)C)=O)[C@H](CC(C)C)NC([C@H](C)N(C)C2=O)=O] ({CH2CO}-L[NMeA][Nva][dP][NMeNva][Cha][NMeA]L[NMeC]-OEt; thioether N-9)

- %R_avg [4]: 12.7%
- Pe_avg [4]: 0 ×10⁻⁶ cm/s
Compound: CCC[C@H]1C(=O)N[C@@H](CC2CCCCC2)C(=O)N(C)[C@@H](C)C(=O)N[C@@H](CC(C)C)C(=O)N(C)[C@H](C(=O)OCC)CSCC(=O)N[C@@H](CC(C)C)C(=O)N(C)[C@@H](C)C(=O)N[C@@H](CC(C)C)C(=O)N2CCC[C@@H]2C(=O)N1C [LC12, O=C(N(C)[C@H](C(OCC)=O)CSCC(N[C@H](C(N(C)[C@@H](C)C(N[C@@H](CC(C)C)C(N1[C@H](CCC1)C(N(C)[C@@H](CCC)C(N[C@H]2CC3CCCCC3)=O)=O)=O)=O)=O)CC(C)C)=O)[C@H](CC(C)C)NC([C@H](C)N(C)C2=O)=O] ({CH2CO}-L[NMeA]L[dP][NMeNva][Cha][NMeA]L[NMeC]-OEt; thioether N-9)

- Papp at 10 µM ([3]; Lipo expt. group A1): 9.1 ± 0.4 ×10⁻⁶ cm/s
- Papp at 10 µM ([3]; Lipo expt. group A2): 9.2 ± 0.9 ×10⁻⁶ cm/s
- Papp at 10 µM ([3]; Lipo expt. group B2): 8.8 ± 0.2 ×10⁻⁶ cm/s
- Papp at 10 µM ([3]; Lipo expt. group C1): 9.8 ± 0.2 ×10⁻⁶ cm/s
- PAMPA Papp ([3]; Lipo expt. group B1): 7.7 ± 0.8 x10-6 cm/s
- PAMPA Papp ([3]; Lipo expt. group C2): 9.4 ± 0.4 x10-6 cm/s
Compound: CC(C)NCC(O)COc1cccc2ccccc12 (centres unmarked) [Propranolol]
